# Data reported in patent US9328083B2, “2-aminated methylene or 2-esterified methylene tanshinone derivatives, and preparation method and application thereof” (HANGZHOU BENSHENG PHARMACEUTICAL CO., LTD., priority 2011, dated 2016).
# Experiments:
# [1] = test system: H9 (acute lymphoblastic leukemia, ALL); test: MTT growth inhibition of leukemia cells, 72 h; assay type: cell-based, human; settings: Homo sapiens, H9, 72 h; for IC50: read-out: IC50; for IC90: read-out: IC90
# Excerpt: (§1) Leukemia cell lines: leukemia cell lines: K562/adr (drug-resistant, chronic myeloid leukemia, CML), NB4 (acute promyelocytic leukemia, AML), Kasumi-1 (acute myeloid leukemia M2 type, AML-M2), and Jurkat (acute lymphoblastic leukemia, ALL), all of which are donated by Cancer Research Institute of Zhejiang University, China; and H9 (acute lymphoblastic leukemia, ALL), which is purchased from China Center for Type Culture Collection (CCTCC).
# (§2) The standard sample of tanshinone I (TA) and the 2-aminated methylene or 2-esterified methylene tanshinone I derivatives of the present invention are sufficiently dissolved with dimethylsulfoxide to produce a stock solution of 10 mg/mL, which is refrigerated at 4° C. and stored in dark, and is diluted with a cell culture medium to the desired concentration prior to experimentation.
# (§3) Obtaining 6000 well-growing leukemia cells and inoculating them into wells of a 96-well cell culture plate. The culture medium is the RPMI-1640 cell culture medium containing 10% fetal bovine serum. After adding on the second day the 2-aminated methylene or 2-esterified methylene tanshinone I derivatives of different concentrations and mixing uniformly, placing the plate in a carbon dioxide cell incubator (5% CO2) at 37° C. and incubated for 72 hours. Then the viable cell concentration is determined by MTT method.
# [2] = test system: Jurkat (acute lymphoblastic leukemia, ALL); test: MTT growth inhibition of leukemia cells, 72 h; assay type: cell-based, human; settings: Homo sapiens, 72 h; for IC50: read-out: IC50; for IC90: read-out: IC90
# Excerpt: as §1, §2, §3
# [3] = test system: K562/adr (drug-resistant, chronic myeloid leukemia, CML); test: MTT growth inhibition of leukemia cells, 72 h; assay type: cell-based, human; settings: Homo sapiens, K562/Adr; for IC50: read-out: IC50; for IC90: read-out: IC90
# Excerpt: as §1, §2, §3
# [4] = test system: Kasumi-1 (acute myeloid leukemia M2 type, AML-M2); test: MTT growth inhibition of leukemia cells, 72 h; assay type: cell-based, human; settings: Homo sapiens, Kasumi-1, 72 h; for IC50: read-out: IC50; for IC90: read-out: IC90
# Excerpt: as §1, §2, §3
# [5] = test system: NB4 (acute promyelocytic leukemia, AML); test: MTT growth inhibition of leukemia cells, 72 h; assay type: cell-based, human; settings: Homo sapiens, NB4, 72 h; for IC50: read-out: IC50; for IC90: read-out: IC90
# Excerpt: as §1, §2, §3
# [6] = test system: RPMI8226 (multiple myeloma); test: MTT growth inhibition of multiple myeloma cells, 72 h; assay type: cell-based, human; settings: Homo sapiens, RPMI 8226, 72 h; for IC50: read-out: IC50; for IC90: read-out: IC90
# Protocol: Myeloma cell lines: RPMI8226 (multiple myeloma), purchased from Fuxiang Bio-tech Co. Ltd., Shanghai, China.
# as §2
# as §3, with “myeloma” for “leukemia”, “cells as above” for “cells”, “1640” for “RPMI-1640”, “adding” for “adding on the second day”
# A549 (human lung cancer) = test: MTT growth inhibition of human solid tumor cells, 72 h; assay type: cell-based; settings: Homo sapiens, A549, 72 h; for IC50: read-out: IC50; for IC90: read-out: IC90
# Protocol: (§4) Hep-2 (laryngeal carcinoma), A549 (human lung cancer), CaES-17 (esophageal cancer cell), PC-3 (prostate cancer), CNE (nasopharyngeal carcinoma cell), and SK-OV-3 (ovarian cancer cell), all of which are purchased from China Center For Type Culture Collection; RKO (human colon adenocarcinoma cell), MGC 803 (human gastric cancer cell), MG63 (osteosarcoma) and U87 MG (malignant glioma cell), all of which are purchased from Fuxiang Bio-tech Co. Ltd., Shanghai, China; PANC-1 (pancreatic cancer), Hep G2 (human liver cancer cell), Becap37 (human breast cancer cell) and Hela (human cervical cancer cell), all of which are donated by Cancer Research Institute of Zhejiang University, China.
# as §2
# (§5) Obtaining 4000 well-growing human solid tumor cells and inoculating them into wells of a 96-well cell culture plate. The culture medium is DMEM High Glucose cell culture medium containing 10% fetal bovine serum. The plate is placed in a carbon dioxide cell incubator (5% CO2) at 37° C. and incubated for 24 hours. After adding the 2-aminated methylene or 2-esterified methylene tanshinone I derivatives of different concentrations and mixing uniformly, the plate is placed in a carbon dioxide cell incubator (5% CO2) at 37° C. and incubated for 72 hours. Then the viable cell concentration is determined by the MTT method.
# [7] = test system: Becap37 (human breast cancer cell); test: as above; assay type: cell-based; settings: Homo sapiens, Becap-37, 72 h; for IC50: read-out: IC50; for IC90: read-out: IC90
# Protocol: as §4, §2, §5
# [8] = test system: CNE (nasopharyngeal carcinoma cell); test: as above; assay type: cell-based; settings: Homo sapiens; for IC50: read-out: IC50; for IC90: read-out: IC90
# Protocol: as §4, §2, §5
# [9] = test system: CaES-17 (esophageal cancer cell); test: as above; assay type: cell-based; settings: Homo sapiens, CaEs17, CaEs-17, 72 h; for IC50: read-out: IC50; for IC90: read-out: IC90
# Protocol: as §4, §2, §5
# [10] = test system: Hela (human cervical cancer cell); test: as above; assay type: cell-based; settings: Homo sapiens, HeLa, 72 h; for IC50: read-out: IC50; for IC90: read-out: IC90
# Protocol: as §4, §2, §5
# [11] = test system: Hep G2 (human liver cancer cell); test: as above; assay type: cell-based; settings: Homo sapiens, HepG2, Hep G2, 72 h; for IC50: read-out: IC50; for IC90: read-out: IC90
# Protocol: as §4, §2, §5
# [12] = test system: Hep-2 (laryngeal carcinoma); test: as above; assay type: cell-based; settings: Homo sapiens, HEp-2, 72 h; for IC50: read-out: IC50; for IC90: read-out: IC90
# Protocol: as §4, §2, §5
# MG63 (osteosarcoma) = test: as above; assay type: cell-based; settings: Homo sapiens, MG-63, 72 h; for IC50: read-out: IC50; for IC90: read-out: IC90
# Protocol: as §4, §2, §5
# [13] = test system: MGC 803 (human gastric cancer cell); test: as above; assay type: cell-based; settings: Homo sapiens, MGC-803, 72 h; for IC50: read-out: IC50; for IC90: read-out: IC90
# Protocol: as §4, §2, §5
# [14] = test system: PANC-1 (pancreatic cancer); test: as above; assay type: cell-based; settings: Homo sapiens, PANC-1, 72 h; for IC50: read-out: IC50; for IC90: read-out: IC90
# Protocol: as §4, §2, §5
# PC-3 (prostate cancer) = test: as above; assay type: cell-based; settings: Homo sapiens, PC-3, 72 h; for IC50: read-out: IC50; for IC90: read-out: IC90
# Protocol: as §4, §2, §5
# [15] = test system: RKO (human colon adenocarcinoma cell); test: as above; assay type: cell-based; settings: Homo sapiens; for IC50: read-out: IC50; for IC90: read-out: IC90
# Protocol: as §4, §2, §5
# [16] = test system: SK-OV-3 (ovarian cancer cell); test: as above; assay type: cell-based; settings: Homo sapiens, SK-OV-3, 72 h; for IC50: read-out: IC50; for IC90: read-out: IC90
# Protocol: as §4, §2, §5
# [17] = test system: U87 MG (malignant glioma cell); test: as above; assay type: cell-based; settings: Homo sapiens, U-87 MG, U87-MG, 72 h; for IC50: read-out: IC50; for IC90: read-out: IC90
# Protocol: as §4, §2, §5
IC50 [1],IC90 [1],IC50 [2],IC90 [2],IC50 [3],IC90 [3],IC50 [4],IC90 [4],IC50 [5],IC90 [5],IC50 [6],IC90 [6],IC50 (A549 (human lung cancer)),IC90 (A549 (human lung cancer)),IC50 [7],IC90 [7],IC50 [8],IC90 [8],IC50 [9],IC90 [9],SMILES,also measured
0.57 µg/mL,0.9 µg/mL,0.56 µg/mL,0.99 µg/mL,0.61 µg/mL,1.61 µg/mL,0.31 µg/mL,1.28 µg/mL,0.73 µg/mL,1.9 µg/mL,1.82 µg/mL,3.92 µg/mL,2.76 µg/mL,6.41 µg/mL,2.54 µg/mL,4.92 µg/mL,2.8 µg/mL,7.2 µg/mL,3 µg/mL,5.07 µg/mL,CC(=O)OCCN(C)Cc1oc2c(c1C)C(=O)C(=O)c1c-2ccc2c(C)cccc12 [BS-TA-61],IC50 [10]: 1.49 µg/mL; IC90 [10]: 4 µg/mL; IC50 [11]: 2.95 µg/mL; IC90 [11]: 9.75 µg/mL; IC50 [12]: 0.84 µg/mL; IC90 [12]: 2.52 µg/mL; IC50 (MG63 (osteosarcoma)): 2.34 µg/mL; IC90 (MG63 (osteosarcoma)): 6.79 µg/mL; IC50 [13]: 2.47 µg/mL; IC90 [13]: 8.33 µg/mL; IC50 [14]: 0.74 µg/mL; IC90 [14]: 4.95 µg/mL; IC50 (PC-3 (prostate cancer)): 2.65 µg/mL; IC90 (PC-3 (prostate cancer)): 6.49 µg/mL; IC50 [15]: 0.46 µg/mL; IC90 [15]: 6.98 µg/mL; IC50 [16]: 5.83 µg/mL; IC90 [16]: 9.47 µg/mL; IC50 [17]: 2.59 µg/mL; IC90 [17]: 3.87 µg/mL
0.6 µg/mL,1.8 µg/mL,0.89 µg/mL,3.47 µg/mL,0.78 µg/mL,3.48 µg/mL,0.42 µg/mL,0.97 µg/mL,1.42 µg/mL,3.85 µg/mL,2.64 µg/mL,7.68 µg/mL,3.3 µg/mL,21.4 µg/mL,5.04 µg/mL,11.6 µg/mL,1.8 µg/mL,18 µg/mL,6.33 µg/mL,11.8 µg/mL,Cc1c(CN(C)CCOC(=O)C(C)(C)C)oc2c1C(=O)C(=O)c1c-2ccc2c(C)cccc12 [BS-TA-62],IC50 [10]: 9.26 µg/mL; IC90 [10]: > 16 µg/mL; IC50 [11]: 5.41 µg/mL; IC90 [11]: 22.6 µg/mL; IC50 [12]: 6.81 µg/mL; IC90 [12]: > 16 µg/mL; IC50 (MG63 (osteosarcoma)): 4.88 µg/mL; IC90 (MG63 (osteosarcoma)): > 16 µg/mL; IC50 [13]: 6.3 µg/mL; IC90 [13]: 14.1 µg/mL; IC50 [14]: 1.42 µg/mL; IC90 [14]: 16 µg/mL; IC50 (PC-3 (prostate cancer)): 3.21 µg/mL; IC90 (PC-3 (prostate cancer)): 8.76 µg/mL; IC50 [15]: 0.47 µg/mL; IC90 [15]: > 16 µg/mL; IC50 [16]: > 16 µg/mL; IC90 [16]: > 16 µg/mL; IC50 [17]: 3.2 µg/mL; IC90 [17]: 7.65 µg/mL
